From the supplement of paper PMC10307832

Legend:
Experiment in all cases: relative viability (nuclei count vs DMSO), 5 days (fraction); higher = more cells survive
[1] = compound: C1=CC2=NC=CN=C2C=C1/C=C/3\C(=O)NC(=O)S3 + CC1(C)CCC(c2ccc(Cl)cc2)=C(CN2CCN(c3ccc(C(=O)NS(=O)(=O)c4ccc(N[C@H](CCN5CCOCC5)CSc5ccccc5)c(S(=O)(=O)C(F)(F)F)c4)cc3)CC2)C1 [Navitoclax] (partner 0.5 µM)
Procedure, shortened: (§1)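 Each reported value is a median over duplicate plates. It expresses relative viability: treated-well nuclei count divided by vehicle-well nuclei count. Lung cancer cell lines in 1536-well plates were dosed by pin tool a day after seeding, alone with one drug or with a fixed anchor-drug dose plus five library-drug doses (not always all listed) in √10 steps, and nuclei were counted after 5 days.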

[2] = compound: CCN1CCN(c2ccc(Nc3cc(N(C)C(=O)Nc4c(Cl)c(OC)cc(OC)c4Cl)ncn3)cc2)CC1 [BGJ398]
Procedure, shortened: (§2)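 Cells of lung cancer lines were placed in 1536-well plates and kept overnight at 37 °C. Pinning then delivered five library-drug doses (not always all listed), spaced by √10, onto plates anchored with vehicle, and the cells were left 5 days without changing medium. One step fixed, permeabilised and stained them with Hoechst, and MetaXpress counted nuclei in 4× images. Viability, as a median over plates, is treated-well nuclei divided by vehicle-well nuclei, with acceptance only at control CV below 25% and at least one doubling.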

[3] = compound: C1=CC2=NC=CN=C2C=C1/C=C/3\C(=O)NC(=O)S3
Procedure, shortened: as §2

[4] = compound: CCN1CCN(c2ccc(Nc3cc(N(C)C(=O)Nc4c(Cl)c(OC)cc(OC)c4Cl)ncn3)cc2)CC1 [BGJ398] + N=C(N)NC(=N)NCCc1ccccc1 [Phenformin] (partner 250 µM)
Procedure, shortened: as §1

Row | Cell Line | relative viability ([1]; first compound 0.02 µM) | relative viability ([1]; first compound 0.06325 µM) | relative viability ([1]; first compound 0.2 µM) | relative viability ([1]; first compound 0.6325 µM) | relative viability ([1]; first compound 2 µM) | relative viability ([2]; 0.01 µM) | relative viability ([2]; 0.03162 µM) | relative viability ([2]; 0.1 µM) | relative viability ([2]; 0.3162 µM) | relative viability ([2]; 1 µM) | relative viability ([3]; 0.02 µM) | relative viability ([3]; 0.06325 µM) | relative viability ([3]; 0.2 µM) | relative viability ([3]; 0.6325 µM) | relative viability ([3]; 2 µM) | relative viability ([4]; first compound 0.01 µM) | relative viability ([4]; first compound 0.03162 µM) | relative viability ([4]; first compound 0.1 µM) | relative viability ([4]; first compound 0.3162 µM) | relative viability ([4]; first compound 1 µM)
1 | Calu-6 | 0.848 | 0.895 | 0.782 | 0.853 | 0.87 | 0.986 | 0.988 | 1.05 | 1.02 | 1.02 | 0.971 | 1.04 | 1.03 | 0.989 | 1 | – | – | – | – | –
2 | LC-2-ad | 0.441 | 0.455 | 0.461 | 0.378 | 0.397 | 0.977 | 1.03 | 0.977 | 0.994 | 0.906 | 0.973 | 0.987 | 1.11 | 0.917 | 0.758 | 0.58 | 0.604 | 0.655 | 0.573 | 0.503
3 | CAL-12T | 1.3 | 1.13 | 1.09 | 1.24 | 1.49 | 0.947 | 1.02 | 0.935 | 0.929 | 0.942 | 0.962 | 0.953 | 1.08 | 0.971 | 0.951 | 0.542 | 0.621 | 0.599 | 0.579 | 0.642
4 | RERF-LC-KJ | 0.69 | 0.897 | 1.01 | 0.863 | 0.826 | 1.04 | 1.05 | 1.06 | 0.987 | 1.05 | 0.908 | 1.02 | 1 | 0.948 | 0.841 | 0.449 | 0.422 | 0.416 | 0.432 | 0.493
5 | NCI-H1650 | 1.23 | 1.3 | 1.14 | 1.14 | 1.3 | 0.874 | 0.747 | 0.909 | 0.487 | 0.692 | 0.953 | 0.952 | 0.974 | 1 | 0.975 | 0.369 | – | 0.399 | 0.187 | 0.365
6 | ABC-1 | – | – | – | – | – | 0.891 | 0.988 | 0.902 | 0.816 | 0.927 | 0.977 | 0.987 | 0.893 | 0.931 | 0.526 | 0.287 | 0.255 | 0.262 | 0.22 | 0.213
7 | NCI-H1299 | 1.04 | 1.08 | 1.04 | 1.04 | 1.06 | 0.99 | 1.05 | 1 | 0.993 | 1.02 | 0.996 | 1.04 | 1.02 | 1 | 1.01 | – | – | – | – | –
8 | EBC-1 | 0.43 | 0.437 | 0.545 | 0.38 | 0.51 | 0.975 | 0.981 | 1.09 | 1.03 | 1.14 | 0.913 | 1.04 | 0.957 | 1.05 | 1.01 | – | – | – | – | –
9 | NCI-H2342 | – | – | – | – | – | 0.998 | 0.96 | 0.934 | 1.02 | 1.11 | 0.832 | 1.01 | 0.989 | 0.904 | 0.803 | 0.574 | 0.629 | 0.704 | 0.572 | 0.657
10 | NCI-H650 | – | – | – | – | – | 0.883 | 1.21 | 1.02 | 1.03 | 0.665 | 0.951 | 1.04 | 1.07 | 0.914 | 0.529 | 0.419 | 0.442 | 0.512 | 0.458 | 0.391
11 | NCI-H358 | – | – | – | – | – | 0.843 | 0.942 | 1.1 | 0.882 | 1.3 | 1.08 | 0.959 | 0.955 | 0.887 | 0.425 | 0.29 | 0.296 | 0.395 | 0.317 | 0.462
12 | NCI-H1563 | – | – | – | – | – | 0.992 | 0.993 | 0.936 | 0.831 | 0.701 | 1.06 | 0.93 | 1.11 | 0.822 | 1.12 | 0.638 | 0.67 | 0.595 | 0.514 | 0.512
13 | SW 900 | – | – | – | – | – | 1 | 0.899 | 0.779 | 0.428 | 0.453 | 0.888 | 0.978 | 1.04 | 0.705 | 0.965 | 0.639 | 0.702 | 0.559 | 0.196 | 0.279
14 | IA-LM | 0.71 | 0.943 | 0.91 | 0.96 | 0.845 | 0.918 | 1.05 | 0.974 | 0.875 | 0.901 | 0.943 | 1.09 | 0.926 | 0.997 | 0.99 | – | – | – | – | –
15 | NCI-H1703 | 1.19 | 1.89 | 1.24 | 0.954 | 1 | 0.872 | 1.04 | 1.02 | 0.806 | 0.967 | 1.09 | 1.33 | 0.942 | 0.864 | 0.736 | – | – | – | – | –
16 | LCLC-103H | – | – | – | – | – | 0.984 | 0.903 | 1.06 | 0.792 | 0.79 | 0.957 | 1.05 | 0.969 | 0.918 | 0.852 | 0.317 | 0.331 | 0.336 | 0.284 | 0.277
17 | NCI-H1648 | – | – | – | – | – | 0.882 | 0.809 | 0.73 | 0.775 | 0.889 | 0.925 | 0.605 | 1.11 | 0.701 | 1 | – | – | – | – | –
